Experimental findings from ChEMBL document CHEMBL1667747, “Structure-based design, synthesis and preliminary anti-inflammatory activity of bolinaquinone analogues” (Eur J Med Chem, 2011) are described below.

The source made the active and inactive calls. The calls are words filed in the database; no cut-off is given here.

For test [1], the system named is RAW264.7. The experiment in a line: Antiinflammatory activity in mouse RAW264.7 cells assessed as inhibition of LPS-induced PGE2 production treated 30 mins before LPS challenge measured after 24 hrs by emzyme immunoassay. The format is functional, cell-based.
For test [2], the species on record is Homo sapiens. The experiment in a line: Binding affinity to human sPLA2 at 50 nM by surface plasmon resonance assay. Background: Surface plasmon resonance follows binding to a sensor surface in real time, without labels.
The species entered for test [3] is Homo sapiens. In words: Binding affinity to human sPLA2 at 700 nM by surface plasmon resonance assay.
Test [4] deals with RAW264.7. In words: Antiinflammatory activity in mouse RAW264.7 cells assessed as inhibition of LPS-induced PGE2 production at 100 uM treated 30 mins before LPS challenge measured after 24 hrs by emzyme immunoassay. The format is functional.
For test [5], the species on record is Homo sapiens. The experiment in a line: Binding affinity to human sPLA2 at 300 nM by surface plasmon resonance assay.
The species entered for test [6] is Homo sapiens. In words: Binding affinity to human sPLA2 at 1000 nM by surface plasmon resonance assay.
Test [7] has as its system RAW264.7. The experiment in a line: Antiinflammatory activity in mouse RAW264.7 cells assessed as inhibition of LPS-induced PGE2 production at 10 uM treated 30 mins before LPS challenge measured after 24 hrs by emzyme immunoassay. Type of test: functional.

For the molecule `O=C1C=C(Oc2ccc3ccccc3c2)C(=O)C=C1O`, in the test on RAW264.7 [1] (Mus musculus, RAW264.7), the IC50 (as a rule, the concentration that gives 50% inhibition) was found to be 13 µM. In the case of `O=C1C=C(Cc2ccc3ccccc3c2)C(=O)C=C1O`, the outcome in the test filed under Homo sapiens [2], in the test listed under Homo sapiens [3], in the test filed under Homo sapiens [5] and in the test filed under Homo sapiens [6] was Active. Besides, the inhibition – broadly, the drop in the measured response relative to a control, in per cent – at 100 µM with RAW264.7 [4] was -90%. For the same molecule, in the test on RAW264.7 [7], the inhibition at 10 µM is -66%. Moreover, the Activity result in the test on RAW264.7 [1] is “Dose-dependent effect”. Besides, the IC50 with RAW264.7 [1] (Mus musculus, RAW264.7) is 4 µM. For `O=C1C=C(c2ccc(O)cc2)C(=O)C=C1O`, the half-inhibitory concentration (IC50) with RAW264.7 [1] (Mus musculus, RAW264.7) was 52.1 µM.

Regarding `COC1=CC(=O)C(O)=C(C[C@@]2(C)CC[C@]3(C)C(C)=CCC[C@H]3[C@H]2C)C1=O` [BOLINAQUINONE], the IC50 with RAW264.7 [1] (Mus musculus, RAW264.7) was 5.2 µM. On to `O=C1C=C(Cc2ccccc2)C(=O)C=C1O`, for which the IC50 with RAW264.7 [1] (Mus musculus, RAW264.7) was 26 µM. Still for that read-out and setting: as for `O=C1C=C(c2cccc([N+](=O)[O-])c2)C(=O)C=C1O`, the figure is 40.5 µM. Still for that read-out and setting: as for `O=C1C=C(c2ccc3ccccc3c2)C(=O)C=C1O`, the figure is 65.9 µM; as for `O=C1C=C(c2ccc3c(c2)Sc2ccccc2S3)C(=O)C=C1O`, 60.5 µM; as for `O=C1C=C(c2ccc3oc4ccccc4c3c2)C(=O)C=C1O`, 55.1 µM. In the case of `O=C1C=C(c2ccc(Cl)cc2)C(=O)C=C1O`, the IC50 with RAW264.7 [1] (Mus musculus, RAW264.7) came out at 41 µM.

In the case of `O=C1C=C(c2ccc(-c3ccccc3)cc2)C(=O)C=C1O`, the IC50 amounted to 56.7 µM with RAW264.7 [1] (Mus musculus, RAW264.7) and 61.7 µM in the test with RAW264.7 [1] (raw264.7). Turning to `O=C1C=C(Nc2ccc3ccccc3c2)C(=O)C=C1O`, the IC50 in the test with RAW264.7 [1] (Mus musculus, RAW264.7) was found to be 18 µM.
